# How the values were obtained:
# [1] = system: Escherichia coli (E. coli); test: Inhibition zone assay of bacteriostatic activity (GB/T 39101-2020, punching method); type: cell-based; conditions: FIG. 19, repeated three times
# Description: Preparation of a silver nanoparticle sample for control: 0.1 mol/L AgCl was dissolved in 16 mL of an ammonia solution at a mass concentration of 25% with continuous stirring, and an aqueous solution of 0.1 mol/L vitamin C was added dropwise. […] The solution was then filtered, and the precipitate was washed repeatedly with double-distilled water, dispersed in double-distilled water, and freeze-dried for 24 h to afford silver nanoparticles prepared from vitamin C.
# Determination of antibacterial activity of polypeptides according to GB/T 39101-2020: Inhibition zone assays in the inhibition zone method evaluate the bacteriostatic activity of test substances. The strain used is Escherichia coli (E. coli) in an ampicillin solution having a concentration of 1.5 mg/mL, using the punching method instead of the “Oxford cup” method to control the sampling areas.
# [2] = Inclusion rate of C-β-CD for cinnamaldehyde (UV absorbance at 287 nm); type: physicochemical; conditions: saturated aqueous solution method, 45° C. 4 h, freeze-dried
# Description: 0.656 g the cationic β-cyclodextrin (C-β-CD) prepared in Example 1 was weighed and added with 10 mL distilled water until completely dissolution. An anhydrous ethanol solution containing 0.066 g cinnamaldehyde was added slowly. The mixture was magnetically stirred in a water bath at 45° C. for 4 h. After completion, the mixture was filtered with a 0.45 μm microporous membrane. The resulting solution was freeze-dried for 24 h to afford a cinnamaldehyde/C-β-CD inclusion complex.
# 10 mg analytically pure cinnamaldehyde was weighed and dissolved in anhydrous ethanol, and the volume was adjusted to 10 mL to prepare a 1000 mg/L stock solution. A proper amount of the stock solution was taken and diluted with anhydrous ethanol into a series of standard solutions at a concentration of 2, 4, 6, 8, and 10 mg/L. In the optimal absorption wavelength, the absorbance A of the above series of standard solutions was determined. […]
# 0.01 g of the C-β-CD inclusion complex of cinnamaldehyde was weighed and added into a 25 mL volumetric flask, added with anhydrous ethanol to dilute to the mark, and sonicated for 30 min. […] The absorbance A of the solution was determined at 287 nm and taken into the regression equation to calculate the cinnamaldehyde content in the inclusion complex (see the previous example for the conversion formula).
# [3] = Inclusion rate of C-β-CD for thymol (UV absorbance at 278 nm); type: physicochemical; conditions: thymol/C-β-CD inclusion complex, 40° C. 2 h, freeze-dried
# Description: 0.656 g of the cationic β-cyclodextrin (C-β-CD) prepared in Example 1 was weighed and added with 10 mL distilled water until completely dissolution. An anhydrous ethanol solution containing 0.075 g thymol (2 mL in total) was added. The mixture was magnetically stirred in a water bath at 40° C. for 2 h. After completion, the mixture was filtered with a 0.45 μm microporous membrane. The resulting solution was freeze-dried for 24 h to afford a thymol/C-β-CD inclusion complex.
# 15 mg of analytically pure thymol was weighed and dissolved in anhydrous ethanol, and the volume was adjusted to 10 mL to prepare a 1500 mg/L stock solution. A proper amount of the stock solution was taken and diluted with anhydrous ethanol into a series of standard solutions at a concentration of 50, 40, 30, 20, and 10 mg/L. In the optimal absorption wavelength, an absorbance A of the above series of standard solutions was determined. A standard curve was drawn with a thymol concentration (mg/L) as an abscissa and A as an ordinate.
# 0.1 g of the thymol/C-β-CD inclusion complex as prepared above was weighed and added into a 25 mL volumetric flask, added with anhydrous ethanol to dilute to the mark, and sonicated for 30 min. […] The absorbance A of the solution at 278 nm was determined, and taken into the regression equation to calculate the thymol content in the inclusion complex. […]
Compound,bacteriostatic effect [1],inclusion rate for cinnamaldehyde [2] [%],inclusion rate for thymol [3] [%]
"O=[N+]([O-])[O-].[Ag+] [AgNO3, silver nitrate, reference compound]",weak bacteriostatic effect,–,–
cationic β-cyclodextrin [C-β-CD],no bacteriostatic activity,21.55,63.55

# Source: US12220463B2, “Quaternary ammonium cyclodextrin and preparation method and uses thereof, and silver nanoparticle-cyclodextrin complex and preparation method and uses thereof” (Hubei University of Chinese Medicine, priority 2022, dated 2025)
